# Reference: patent US12319675B2 (Artax Biopharma Inc., priority 2018, dated 2025)
# pIC50: −log10 of the molar value.
# Legend:
# [1] = Microsomal stability assay, mouse; type: in vitro ADME; details: mouse microsomes, read-out: Microsomal Stability (T1/2 min) Mouse
# Protocol: (§1) Microsomal stability assays were performed using mouse, rat, and human […] according to methods well-known in the art. Microsomal stability results are shown in Table 2 for selected compounds of the invention. The compound numbers correspond to the compound numbers in Table 1. […] “N/A” indicates not assayed.
# [2] = Microsomal stability assay, rat; type: in vitro ADME; details: rat microsomes, read-out: Microsomal Stability (T1/2 min) Rat
# Protocol: as §1
# [3] = Microsomal stability assay, human; type: in vitro ADME; details: human microsomes, read-out: Microsomal Stability (T1/2 min) Human
# Protocol: as §1
# [4] = target: Nck SH3 domain interaction with the proline rich sequence of TCR subunit CD3ε (Homo sapiens, UniProt P16333); experiment: Competitive binding, biosensor with Interferometric Optical Detection Method (IODM); details: ratio of 1:1 between Nck SH3 domain and inhibitors; biotinylated CD3ε peptide on sensing surface
# Protocol: Inhibition of Nck SH3 domain interaction with the proline rich sequence of TCR subunit CD3ε was measured by optical read-out of a biosensor based on the Interferometric Optical Detection Method (IODM), using established methods (WO 2010/026269; WO 2014/020159; Laguna, M. et al., Sensors, 2015, 15(8):19819-29; and Holgado, M. et al., Sensors, 2014, 14(2): 3675-89).
# Briefly, a Biophotonic Cell (BICELL) based on Fabry-Perot interferometers was used as the photonic transducer. The BICELL was fabricated using SU8 in cyclopentanone according to known methods (e.g., Laguna, M. F. et al., Sensors, 2014, 14(4): 6695-6700). Cured film was then treated with 95% sulfuric acid for 10 seconds. Streptavidin was then immobilized on the sensing surface in phosphate buffered saline (PBS; pH 7.4) over 20 min at 37° C. followed by blocking of the surface with 5% skin milk in PBS (pH 7.4). Biotinylated CD3ε peptide (SEQ ID NO: 001) in PBS (pH 7.4) was incubated with the streptavidin coated film to biofunctionalize the sensing surface (20 min at 37° C.).
# Competitive binding assays were performed to determine the affinity reaction of inhibitors. The screening was carried out using a ratio of 1:1 between Nck SH3 domain and inhibitors. The optical readout of the biosensor was accomplished by a Fourier transform visible-infrared (FT-VIS-IR) spectrometer. Competitive binding results are shown in Table 3 for selected compounds of the invention. The compound numbers correspond to the compound numbers in Table 1. Compounds having a designation of “A” provide an Increased Relative Optical Power (ΔIROP) of less than or equal to thirty percent (≤30%); compounds having a designation of “B” provide a ΔIROP of between thirty and fifty percent (>30% to ≤50%); compounds having a designation of “C” provide an ΔIROP of between fifty and seventy percent (>50% to ≤70%); and compounds having a designation of “D” provide a ΔIROP of greater than seventy percent (>70%).
# [5] = test system: CD3 mediated phosphorylation of ZAP70 in Jurkat cells; experiment: CD3 mediated phosphorylation of ZAP70 in Jurkat cells (HTRF); type: cell-based; details: Homo sapiens, Jurkat cells stimulated with 20 μg/mL anti-CD3 antibody; for Emax: maximum inhibition, read-out: pZAP70 Inhibition - Maximum Percent Inhibition (% Inhibition); for pIC50: read-out: pZAP70 Inhibition IC50
# Protocol: Inhibition of CD3 mediated phosphorylation of ZAP70 in Jurkat cells was measured by a cellular based Homogeneous Time-Resolved Fluorescence (HTRF) assay utilizing a Total ZAP-70 HTRF kit.
# Briefly, Jurkat cells (˜1.3×10^6 cells/mL) were harvested on the day of experimentation. Cells were washed with PBS and resuspended in Assay Buffer (RPMI 1640 media plus 10% FBS) and counted.
# Jurkat cells were seeded in Assay media at a total volume of 4 μL/well (40K cells/well) in a 384-low volume white flat bottom plate. The cells were then incubated at 37° C./5% CO2 for 30 minutes. The cells were then treated in duplicate with test compounds (3×) and reference compounds (3×) in a total volume of 4 μL, respectively. A compound dilution scheme is exemplified in FIG. 1.
# The plate was then transferred to an incubator maintained at 37° C./5% CO2 for 2 minutes. Following incubation, cells were stimulated with 20 μg/mL of anti-CD3 antibody (1 mg/mL stock) and assay media was used to bring the total well volume 4 μL/well. The plate was then transferred to the incubator maintained at 37° C./5% CO2 for 2.5 minutes. Following incubation, 4 μL of lysis buffer (4×) provided in the kit was added to each well. The plate was then incubated at RT for 1 hour with gentle shaking. Following incubation, 4 μL of detection mix was added to each well and the plate was sealed with a plate sealer and left overnight at RT in the dark.
# The Envision reader was set-up for Eu^3+ cryptate and fluorescence emission was read at two different wavelengths (620 nm and 665 nm). • Excitation filter: UV2(TRF) 320 nm • Emission filter: 665 nm • 2nd Emission filter: Europium 615 nm • Measurement height (mm): 6.5 • Excitation light (%): 100 • Delay (μs): 50 • Window time (μs): 400 • Time between flashes (μs): 2000 • Number of flashes: 100 • Number of flashes for 2nd detector: 100
# The data is represented by the signal form the two wavelengths:
# The ratio of the signal is calculated for each individual well:
# The data was plotted using Graph Pad Prism. The significance between untreated vs. treated groups was assessed by One-way ANOVA and Bonferroni posttest comparing all columns in the graph.
# ZAP70 IC50 results are shown in Table 6 for select compounds of the invention. The compound numbers correspond to the compound numbers in Table 1. […] “ND” indicates not determined.
# ZAP70 percent maximum inhibition results are shown in Table 7 for select compounds of the invention. The compound numbers correspond to the compound numbers in Table 1.
SMILES,half-life [1] [min],half-life [2] [min],half-life [3] [min],pIC50 [5],ΔIROP (Increased Relative Optical Power) [4],Emax [5] [%]
CC(C)Oc1ccc2c(c1)C(c1ccc(F)cc1)=C(C(=O)N1CCN(C)CC1)CO2 [Compound I-23],< 10,10 to 30,10 to 30,8.00 to 9.00,A (an Increased Relative Optical Power (ΔIROP) of less than or equal to thirty percent (≤30%)),> 50
COc1ccc2c(c1)C(c1cccc(F)c1)=C(CN1CCCC1)CO2 [Compound I-21],< 10,< 10,10 to 30,8.00 to 9.00,C (an ΔIROP of between fifty and seventy percent (>50% to ≤70%)),40 to 50
Fc1ccc(C2=C(c3nc(-c4ccccc4)no3)COc3ccc(OCC4CC4)cc32)cc1 [Compound I-12],> 30,> 30,10 to 30,–,C (an ΔIROP of between fifty and seventy percent (>50% to ≤70%)),≤ 30
COc1ccc2c(c1)C(c1ccc(C(F)(F)F)cc1)=C(CN1CCCC1)CO2 [Compound I-20],< 10,< 10,10 to 30,> 9.00,B (a ΔIROP of between thirty and fifty percent (>30% to ≤50%)),40 to 50
COc1ccc2c(c1)C(c1ccc(C#N)cc1)=C(CN1CCCC1)CO2 [Compound I-22],< 10,< 10,10 to 30,–,B (a ΔIROP of between thirty and fifty percent (>30% to ≤50%)),≤ 30
COc1ccc2c(c1)C(c1ccc(Cl)cc1)=C(CN1CCCC1)CO2 [Compound I-19],< 10,< 10,10 to 30,8.00 to 9.00,C (an ΔIROP of between fifty and seventy percent (>50% to ≤70%)),> 50
CN1CCN(C(=O)C2=C(c3ccc(F)cc3)c3cc(OC(F)F)ccc3OC2)CC1 [Compound I-3],< 10,< 10,10 to 30,> 9.00,B (a ΔIROP of between thirty and fifty percent (>30% to ≤50%)),≤ 30

# Continued, in another order:
half-life [1] [min],half-life [2] [min],half-life [3] [min],pIC50 [5],SMILES,ΔIROP (Increased Relative Optical Power) [4],Emax [5] [%]
< 10,10 to 30,> 30,8.00 to 9.00,COc1ccc2c(c1)C(c1ccc(C#N)cc1)=C(C(=O)N1CCN(C)CC1)CO2 [Compound I-30],C (an ΔIROP of between fifty and seventy percent (>50% to ≤70%)),40 to 50
> 30,> 30,> 30,8.00 to 9.00,"O=C(O)CCOc1ccc2c(c1)C(c1ccc(F)cc1)=C(C(=O)N1CCCC1)CO2 [Compound I-40, 3-((4-(4-fluorophenyl)-3-(pyrrolidine-1-carbonyl)-2H-chromen-6-yl)oxy)propanoic acid]",D (a ΔIROP of greater than seventy percent (>70%)),30 to 40
< 10,< 10,< 10,8.00 to 9.00,CC(C)c1ccc2c(c1)C(c1ccc(F)cc1)=C(C(=O)N1CCN(C)CC1)CO2 [Compound I-24],C (an ΔIROP of between fifty and seventy percent (>50% to ≤70%)),40 to 50
< 10,< 10,< 10,8.00 to 9.00,CN1CCN(C(=O)C2=C(c3ccc(F)cc3)c3ccccc3OC2)CC1 [Compound I-44],D (a ΔIROP of greater than seventy percent (>70%)),30 to 40
> 30,> 30,> 30,8.00 to 9.00,"O=C(O)CCOc1ccc2c(c1)C(c1ccc(F)cc1)=C(CN1CCCC1)CO2 [Compound I-33, 3-((4-(4-fluorophenyl)-3-(pyrrolidin-1-ylmethyl)-2H-chromen-6-yl)oxy)propanoic Acid]",A (an Increased Relative Optical Power (ΔIROP) of less than or equal to thirty percent (≤30%)),> 50
